We go through one molecule from patent US9095524B2, “Customized compositions and uses thereof” (Bond University Ltd., priority 2011, dated 2015).

In this test the test system is HMSCs. As to the kind of experiment: Calcium deposition (osteogenic differentiation) with purmorphamine. Type of test: cell-based, human. The settings on record: 2 μM purmorphamine added directly into differentiation media, hMSCs on polystyrene culture plate (PS).

`c1ccc2c(Oc3nc(Nc4ccc(N5CCOCC5)cc4)c4ncn(C5CCCCC5)c4n3)cccc2c1` [purmorphamine]: the calcium deposition result is listed as “significant increase in calcium deposition”.
